Active and inactive are the calls of the source.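 How the source made its calls: active means compounds giving half or more protection of infected cells from virus-caused growth loss, again on retest; inactive means the rest.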 Where a SMILES comes first, the peptide text is derived from it. [ ]: non-standard residue; d: D form. Phe(4-NO2) = N[CH](Cc1ccc([N+](=O)[O-])cc1)C(=O)O
Tested on: CEM cells HIV-1 protection, formazan growth assay
Assay: NCI AIDS Antiviral Assay
Conditions: for IC50: measured here: growth of uninfected CEM cells
Procedure, shortened: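 Protection of CEM cells against HIV-1 measured as cell growth via soluble formazan read-out, with five concentrations tested on both infected and uninfected cells; failure to protect may reflect toxicity.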

SMILES | EC50 [µM] | IC50 [µM] | outcome
O=C(CC1(O)C(=O)Nc2c(Cl)cc(Cl)cc21)c1ccc(Br)cc1Br (stereo not given) | > 51.3 | 44.7 | 
CNC(=S)c1nnsc1N | > 200 | 0.302 | 
Cc1cc(Cl)cc(S)c1S(=O)(=O)Nc1nnc2ccc3ccccc3n12 | > 200 | 93.3 | 
NCCNC(=O)CCC(CN(CC(=O)O)CC(=O)O)N(CC(=O)O)CC(=O)O (stereo not given) | > 63.1 | > 63.1 | 
Cc1ncc2c(c1O)COC2=O | > 1510 | > 1510 | 
O=C(O)C1CC2C3CCC2C1C3=O (stereo not given) | > 200 | > 200 | 
COc1ccc(/C=C2/CCS(=O)(=O)c3ccc(C)cc3C2=O)cc1OC | > 200 | 6.03 | 
C=CCON(C(=O)OC(C)(C)C)C(C)(C)C | > 200 | > 200 | 
Nc1ccccc1S(=O)(=O)N(CC(=O)O)c1ccccc1 |  |  | inactive
CCOC(=O)c1c(N)sc2c1C(C)(C(=O)OCC)CC2 (stereo not given) | > 200 | 141 | 
O=C1C=CC2(CCC23C=CC(=O)O3)O1 (stereo not given) | > 135 | 7.94 | 
O=[N+]([O-])c1ccc2c(c1)-c1ccccc1S2(=O)=O |  |  | inactive
O=c1c2ccccc2nc2ccc3c(Cl)[nH][nH]c3c12 |  |  | inactive
CN(C)CCNC(=O)C1COc2cc(-c3cc(=O)c4ccccc4o3)ccc2O1 (stereo not given) |  |  | inactive
COC(=O)c1nc2[nH]n(-c3ccccc3)c(=O)c2c2c1CCCCCCCCCC2 | > 123 | 115 | 
COc1c(N2CCCCC2)c2c(=O)c3ccccc3oc2c2cc(C)oc12 | > 200 | 11.2 | 
[O-]c1c2c(nn1-c1ccc(F)cc1)c1ccccc1c[n+]2Cc1ccccc1 |  |  | inactive
O=S1(=O)c2ccccc2-c2nccc3ccnc1c23 |  |  | inactive
CCc1cccc(C)c1NC(=O)CC(=O)NNC(N)=S | > 324 | > 324 | 
O=CC[C@@H]1c2ccccc2C=C[C@]12C=CC(=O)CC2 | > 74.1 | 53.7 | 
CC(=O)O[C@]12CCCCC1C1(O)C(O)CCCC[C@H]12 (stereo not given in full) | > 200 | > 200 | 
COc1cccc2c(=O)c3c(n(C)c12)OC(C(C)C)C3 (stereo not given) | > 339 | 126 | 

SMILES | EC50 [µM] | IC50 [µM] | outcome
Cc1ccc(C(=O)N(C2CCCCC2)C2CCCCC2)cc1N=NN(C)C | > 19.5 | > 19.5 | 
Cc1c(C2Cc3ccccc3N2C(=O)/C=C\C(=O)O)c2ccccc2n1C (stereo not given) | > 692 | 14.5 | 
CC(=O)OC1=C2CC[C@@H]3C(CC[C@@]4(C)C3CC[C@@H]4OC(C)=O)[C@@]2(C)CC(C#N)C1=O (stereo not given in full) |  |  | inactive
O=C1C(C(O)(C(F)(F)F)C(F)(F)F)CCC1C(O)(C(F)(F)F)C(F)(F)F (stereo not given) |  |  | inactive
O=C(O)c1ccccc1C(=O)OCC1CCCN2CCCCC12 (stereo not given) | > 151 | > 151 | 
O=c1[nH]c(-c2ccccc2)nc2cc([N+](=O)[O-])c(/C(Cl)=C/c3ccccc3)cc12 |  |  | inactive
Cc1ccc(-c2n[nH]c(=O)n2N2C(=O)c3ccccc3C2=O)cc1 | > 200 | > 200 | 
Clc1cnc2cccc3c2c1C=CN3 | > 129 | 52.5 | 
CCOC(=O)C(NC(C)=O)(Nc1ccc(S(N)(=O)=O)cc1)C(F)(F)F (stereo not given) | > 200 | > 200 | 
C[N+]12CCCCC1CC(=O)CC2 (stereo not given) | > 851 | > 851 | 
COC(=O)CCC(NC(=O)C(CCC(=O)OC)NC(=O)C(CCC(=O)OC)NC(=O)C(CCC(=O)OC)NC(=O)C(CCC(=O)OC)NC(=O)C(Cc1ccc([N+](=O)[O-])cc1)NC(=O)C(CCC(=O)OC)NC(=O)C(CCC(=O)OC)NC(=O)C(CCC(=O)OC)NC(=O)C(CCC(=O)OC)NC(=O)C(CCC(=O)OC)NC(C)=O)C(N)=O (stereo not given) (Ac-E(OMe)E(OMe)E(OMe)E(OMe)E(OMe)[Phe(4-NO2)]E(OMe)E(OMe)E(OMe)E(OMe)E(OMe)-NH2; configuration not given here) | > 100 | > 100 | 
CC(C)(C)OC(=O)CC(NC(=O)OC(C)(C)C)C(=O)NC(C(=O)O)C(O)c1ccccc1 (stereo not given) | > 200 | 93.3 | 
C1CCC(CC[N+]23CC[N+](CCC4CCCC4)(CC2)C3)C1 | > 692 | 347 | 
COC(=O)/C=C1\C(CO[Si](C)(C)C(C)(C)C)OC(n2cc(C)c(=O)[nH]c2=O)C1O[Si](C)(C)C(C)(C)C (stereo not given) | > 200 | 7.08 | 
CCCCCC/C=C\CCCCCCCCCc1cccc(OC)c1O | > 200 | > 200 | 
CCOC(=O)/C(C#N)=N\Nc1ccc(-n2c(C)nc3ccccc3c2=O)cc1 | > 200 | 89.1 | 
C=C1C(=O)OC2C1CCC(C)C1C=CC(=O)C12C (stereo not given) | > 200 | 1.07 | 
O=[N+]([O-])c1ccc2cnn(CSP(=S)(c3ccccc3)c3ccccc3)c2c1 | > 200 | 3.02 | 
COc1cc(/C=C/C(=N\NC(N)=S)c2sc(NNC(C)=O)nc2C)ccc1O | > 77.6 | 69.2 | 
N/C(=C\c1ccc(/C=C(\NC(=O)c2ccccc2)c2nc3c([nH]2)C(=O)c2ccccc2C3=O)cc1)c1nc2c([nH]1)C(=O)c1ccccc1C2=O |  |  | inactive
CSc1nc(C)c2c(n1)N(c1ccc(Cl)cc1)CC2 | > 200 | > 200 | 
CC(=O)NC1CC(C(C)(C)NC(C)=O)CC=C1C (stereo not given) | > 269 | > 269 | 

SMILES | EC50 [µM] | IC50 [µM] | outcome
c1csc(-c2sc(-c3ccsc3)cc2Cc2ccsc2)c1 |  |  | inactive
Cc1cc(C)c(O)c(CN2CCN(C(C)C)CCN(C(C)C)CC2)c1 | > 47.9 | 13.8 | 
Cc1cc2oc(C)c(S(=O)(=O)NC(=O)Nc3ccc(Cl)cc3)c(=O)c2c(=O)o1 | > 200 | 107 | 
O=C1C=CC(=O)c2c1ccc1c3ccccc3n(Cc3cccc([N+](=O)[O-])c3)c21 | > 200 | 1.35 | 
COc1ccc(/C=N/NC(=O)c2ccc(OCc3nc4ccccc4[nH]3)cc2)cc1 | 178 | > 200 | 
CO/C1=C\C(C)=C\C(C)C(O)C(C)C/C(C)=C/C=C/C(OC)C(C(C)C(O)C(C)C2(O)CC(O)C(C)C(C(C)C)O2)OC1=O (stereo not given) | > 0.2 | 0.0129 | 
O=C(Nc1ccc(S(=O)(=O)c2ccc(NC(=O)c3cc(S(=O)(=O)O)ccc3O)cc2)cc1)c1cc(S(=O)(=O)O)ccc1O (tested in a mixture with another compound) | 162 | > 200 | 
O=C1C2CC=C3CCS(=O)C3C2C(=O)N1c1ccccc1 (stereo not given) | > 417 | > 417 | 
CCN(CC)CC(=O)Nc1ccc(Cc2ccc(NC(=O)CN(CC)CC)cc2)cc1 | > 200 | 16.2 | 
CC(O)CC[P+](c1ccccc1)(c1ccccc1)c1ccccc1 (stereo not given) | > 200 | 4.27 | 
O=[N+]([O-])c1ccc2nc(/C=C(\O)c3ccccc3)c(/C=C(\O)c3ccc(Cl)cc3)nc2c1 | > 100 | 11 | 
O=C1OCCC[C@H]2O[C@@H](COCc3ccccc3)C[C@@H]12 | > 200 | > 200 | 
Clc1ccc(CN2COc3c(ccc4cccnc34)C2)cc1 | > 200 | 1.82 | 
Cc1c(/C=N/NC(=S)N2CCCCC2)c(=O)n(-c2ccccc2)n1C | > 200 | 28.8 | 
Clc1ccc(CCn2ccc3ccccc32)c(Cl)c1 | > 200 | > 200 | 
CC1CN(C=O)CC(C)N1CCN1C(C)CN(C=O)CC1C (stereo not given) | > 288 | > 288 | 
Cc1cccc2c(NCCN(C)C)c3cccc(C(=O)NCCN(C)C)c3nc12 | > 0.2 | 0.195 | 
Cc1cccc(NC(=O)CC(=O)N2N=C(N3c4ccccc4Sc4ccccc43)CC2c2ccccc2)c1 (stereo not given) | > 151 | > 151 | 
Nc1cccc(Nc2nc3ccccc3nc2NS(=O)(=O)c2ccccc2)c1 | > 200 | 51.3 | 
COC1=C(C)C(=O)c2nc(Cl)cc(C)c2C1=O |  |  | inactive
CC(C)(C)OC(=O)N(CC1OC(n2cnc3c(N)ncnc32)C2OC(C)(C)OC12)OC(=O)C(C)(C)C (stereo not given) | > 200 | > 200 | 
CCOC(=O)C12C3CCC1C2C(=O)C3 (stereo not given) |  |  | inactive

SMILES | EC50 [µM] | IC50 [µM] | outcome
O=S1(=O)OCCOS(=O)(=O)C1Cc1ccccc1 | > 447 | 50.1 | 
CCCCCCCCCCCCCCCCCCSCC(COP(=O)(O)OP(=O)(O)O)OC(=O)CCCCCCCCCCCCCCC (stereo not given) | > 0.891 | > 0.891 | 
C#CCC(O)c1ccc(OC)c(OCc2ccccc2)c1 (stereo not given) | > 200 | 69.2 | 
Nc1ncnc2c1ncn2C1OC(CSCC(F)(F)F)C(O)C1O (stereo not given) | > 692 | 245 | 
Cc1cccc(C2=C/C(=C(\SS/C(C(=O)c3ccc(OCC(=O)O)c(Cl)c3Cl)=C3\C=C(c4cccc(C)c4)SS3)C(=O)c3ccc(OCC(=O)O)c(Cl)c3Cl)SS2)c1 |  |  | inactive
Cc1ccc([N+](=O)[O-])cc1NC(=O)Nc1onc(C)c1C | > 200 | 9.77 | 
C=CCCCCCCCCCP(=O)(c1ccccc1)c1ccc2c(c1)OCCOCCOCCOCCO2 (stereo not given) | > 200 | 1.7 | 
CC/C(Cl)=N\OC(=O)Nc1ccc(F)c(Cl)c1 |  |  | inactive
O=C(O)c1ccccc1/C=N/NC1=NCCCCN1 | > 200 | 141 | 
O=C(c1ccccc1)N1C(=O)c2ccccc21 | > 162 | 49 | 
O=C1Nc2cnc(Cl)nc2Nc2ccc(Cl)cc21 | 123 | > 200 | 
CC(=O)N(CC(=O)Nc1ccc(S(N)(=O)=O)cc1)C(C)C | > 200 | > 200 | 
COc1cc(/C=C2/Cc3ccccc3C2=O)ccc1O | > 107 | 55 | 
CCOc1ccc(N=Nc2ccc(N)cc2N)cc1 | > 200 | 107 | 
S=C1NC2=C(CSC/C2=C\c2ccc(Cl)cc2)C(c2ccc(Cl)cc2)N1 (stereo not given) | > 200 | 15.8 | 
CC1(C)SC(CCCCCCCCCCCNC2=NCCCCCCCCCCC2)=N[C@@H]1C(=O)O | > 67.6 | 38 | 
CC(=O)Nc1ncc2ccccc2c1-c1ccc(NC(=O)CN(CCO)CCO)cc1 | > 200 | > 200 | 
O=C1CCC(=O)N1CNc1cccc(NCN2C(=O)CCC2=O)c1 | > 39.8 | > 39.8 | 
Cc1ccc2oc(-c3nnc(N)s3)cc(=O)c2c1 | > 28.2 | > 28.2 | 

From PubChem BioAssay AID179 (DTP/NCI, 2004)
